Holding throughout (assay): Radiolabeled ATP kinase assay, panel of 371 kinases (Table S6)
What all share (format): biochemical

Assay [1] addresses T1, panel of 371 human kinases (Homo sapiens, UniProt Q9NRM7).
T1 construct: purchased Reaction Biology Corp
The note with it: LATS2; 0.1 μM; 10 μM ATP; read-out: % Enzyme Activity (relative to DMSO controls). The source says:
(§1) ; FIG. 38C). […]. Further targeted analyses, such as genetic knock-down or knock-out, may be warranted to parse the role of these additional kinases in our model of neurodegeneration.

The target in assay [2] is T2, panel of 371 human kinases (Homo sapiens, UniProt Q16539).
T2 construct: purchased Reaction Biology Corp
The note with it: P38a/MAPK14; 0.1 μM; 10 μM ATP; read-out: % Enzyme Activity (relative to DMSO controls).
From the text: as §1

The target in assay [3] is T3, panel of 371 human kinases (Homo sapiens, UniProt Q8TDC3).
T3 construct: purchased Reaction Biology Corp
The note with it: BRSK1; 0.1 μM; 10 μM ATP; read-out: % Enzyme Activity (relative to DMSO controls).
From the text: as §1

Assay [4] addresses T4, panel of 371 human kinases (Homo sapiens, UniProt Q96BR1).
T4 construct: purchased Reaction Biology Corp
The note with it: SGK3/SGKL; 0.1 μM; 10 μM ATP; read-out: % Enzyme Activity (relative to DMSO controls).
From the text: as §1

The target of assay [5] is T5, panel of 371 human kinases (Homo sapiens, UniProt Q9Y5S2).
T5 construct: purchased Reaction Biology Corp
The note with it: MRCKb/CDC42BPB; 0.1 μM; 10 μM ATP; read-out: % Enzyme Activity (relative to DMSO controls).
From the text: as §1

Assay [6] deals with T6, panel of 371 human kinases (Homo sapiens, UniProt Q9Y6M4).
T6 construct: purchased Reaction Biology Corp
The note with it: CK1g3; 0.1 μM; 10 μM ATP; read-out: % Enzyme Activity (relative to DMSO controls).
From the text: as §1

The target in assay [7] is T7, panel of 371 human kinases (Homo sapiens, UniProt Q9UBE8).
T7 construct: purchased Reaction Biology Corp
The note with it: NLK; 0.1 μM; 10 μM ATP; read-out: % Enzyme Activity (relative to DMSO controls).
From the text: as §1

The target in assay [8] is T8, panel of 371 human kinases (Homo sapiens, UniProt Q8N5S9).
T8 construct: purchased Reaction Biology Corp
The note with it: CAMKK1; 0.1 μM; 10 μM ATP; read-out: % Enzyme Activity (relative to DMSO controls).
From the text: as §1

Assay [9] deals with T9, panel of 371 human kinases (Homo sapiens, UniProt P53779).
T9 construct: purchased Reaction Biology Corp
The note with it: JNK3; 0.1 μM; 10 μM ATP; read-out: % Enzyme Activity (relative to DMSO controls).
From the text: as §1

In assay [10] the target is T10, panel of 371 human kinases (Homo sapiens, UniProt Q96KB5).
T10 construct: purchased Reaction Biology Corp
The note with it: PBK/TOPK; 0.1 μM; 10 μM ATP; read-out: % Enzyme Activity (relative to DMSO controls).
From the text: as §1

For assay [11], the target named is T11, panel of 371 human kinases (Homo sapiens, UniProt Q9P1W9).
T11 construct: purchased Reaction Biology Corp
The note with it: PIM2; 0.1 μM; 10 μM ATP; read-out: % Enzyme Activity (relative to DMSO controls).
From the text: as §1

The target of assay [12] is T12, panel of 371 human kinases (Homo sapiens, UniProt Q9P286).
T12 construct: purchased Reaction Biology Corp
The note with it: PAK5; 0.1 μM; 10 μM ATP; read-out: % Enzyme Activity (relative to DMSO controls).
From the text: as §1

The target in assay [13] is T13, panel of 371 human kinases (Homo sapiens, UniProt P42684).
T13 construct: purchased Reaction Biology Corp
The note with it: ABL2/ARG; 0.1 μM; 10 μM ATP; read-out: % Enzyme Activity (relative to DMSO controls).
From the text: as §1

Assay [14] has as its target T14, panel of 371 human kinases (Homo sapiens, UniProt P36897).
T14 construct: purchased Reaction Biology Corp
The note with it: ALK5/TGFBR1; 0.1 μM; 10 μM ATP; read-out: % Enzyme Activity (relative to DMSO controls).
From the text: as §1

Assay [15] deals with T15, panel of 371 human kinases (Homo sapiens, UniProt Q96PN8).
T15 construct: purchased Reaction Biology Corp
The note with it: TSSK3/STK22C; 0.1 μM; 10 μM ATP; read-out: % Enzyme Activity (relative to DMSO controls).
From the text: as §1

Assay [16] deals with T16, panel of 371 human kinases (Homo sapiens, UniProt Q12866).
T16 construct: purchased Reaction Biology Corp
The note with it: c-MER; 0.1 μM; 10 μM ATP; read-out: % Enzyme Activity (relative to DMSO controls).
From the text: as §1

Assay [17] deals with T17, panel of 371 human kinases (Homo sapiens, UniProt O75385).
T17 construct: purchased Reaction Biology Corp
The note with it: ULK1; 0.1 μM; 10 μM ATP; read-out: % Enzyme Activity (relative to DMSO controls).
From the text: as §1

The target in assay [18] is T18, panel of 371 human kinases (Homo sapiens, UniProt Q9HCP0).
T18 construct: purchased Reaction Biology Corp
The note with it: CK1g1; 0.1 μM; 10 μM ATP; read-out: % Enzyme Activity (relative to DMSO controls).
From the text: as §1

The target in assay [19] is T19, panel of 371 human kinases (Homo sapiens, UniProt P20794).
T19 construct: purchased Reaction Biology Corp
The note with it: MAK; 0.1 μM; 10 μM ATP; read-out: % Enzyme Activity (relative to DMSO controls).
From the text: as §1

Assay [20] has as its target T20, panel of 371 human kinases (Homo sapiens, UniProt Q05513).
T20 construct: purchased Reaction Biology Corp
The note with it: PKCzeta; 0.1 μM; 10 μM ATP; read-out: % Enzyme Activity (relative to DMSO controls).
From the text: as §1

The target of assay [21] is T21, panel of 371 human kinases (Homo sapiens, UniProt P31751).
T21 construct: purchased Reaction Biology Corp
The note with it: AKT2; 0.1 μM; 10 μM ATP; read-out: % Enzyme Activity (relative to DMSO controls).
From the text: as §1

The target of assay [22] is T22, panel of 371 human kinases (Homo sapiens, UniProt Q86YV6).
T22 construct: purchased Reaction Biology Corp
The note with it: MYLK4; 0.1 μM; 10 μM ATP; read-out: % Enzyme Activity (relative to DMSO controls).
From the text: as §1

Assay [23] concerns the target T23, panel of 371 human kinases (Homo sapiens, UniProt Q07912).
T23 construct: purchased Reaction Biology Corp
The note with it: ACK1; 0.1 μM; 10 μM ATP; read-out: % Enzyme Activity (relative to DMSO controls).
From the text: as §1

Assay [24] concerns the target T24, panel of 371 human kinases (Homo sapiens, UniProt Q86Y07).
T24 construct: purchased Reaction Biology Corp
The note with it: VRK2; 0.1 μM; 10 μM ATP; read-out: % Enzyme Activity (relative to DMSO controls).
From the text: as §1

T24 sequence (Q86Y07 whole entry): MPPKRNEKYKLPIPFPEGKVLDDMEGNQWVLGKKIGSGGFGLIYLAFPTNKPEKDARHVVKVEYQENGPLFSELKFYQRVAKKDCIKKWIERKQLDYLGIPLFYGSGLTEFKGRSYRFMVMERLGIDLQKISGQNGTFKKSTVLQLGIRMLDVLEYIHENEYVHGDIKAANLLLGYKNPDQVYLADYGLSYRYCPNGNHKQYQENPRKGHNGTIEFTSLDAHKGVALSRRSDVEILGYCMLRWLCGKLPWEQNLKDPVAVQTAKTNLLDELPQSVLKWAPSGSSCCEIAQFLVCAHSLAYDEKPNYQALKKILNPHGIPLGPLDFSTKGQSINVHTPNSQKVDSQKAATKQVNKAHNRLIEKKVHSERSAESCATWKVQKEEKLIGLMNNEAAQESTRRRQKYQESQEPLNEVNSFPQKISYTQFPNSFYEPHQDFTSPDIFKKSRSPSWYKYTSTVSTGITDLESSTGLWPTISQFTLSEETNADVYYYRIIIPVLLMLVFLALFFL
T16 sequence (Q12866 21-999): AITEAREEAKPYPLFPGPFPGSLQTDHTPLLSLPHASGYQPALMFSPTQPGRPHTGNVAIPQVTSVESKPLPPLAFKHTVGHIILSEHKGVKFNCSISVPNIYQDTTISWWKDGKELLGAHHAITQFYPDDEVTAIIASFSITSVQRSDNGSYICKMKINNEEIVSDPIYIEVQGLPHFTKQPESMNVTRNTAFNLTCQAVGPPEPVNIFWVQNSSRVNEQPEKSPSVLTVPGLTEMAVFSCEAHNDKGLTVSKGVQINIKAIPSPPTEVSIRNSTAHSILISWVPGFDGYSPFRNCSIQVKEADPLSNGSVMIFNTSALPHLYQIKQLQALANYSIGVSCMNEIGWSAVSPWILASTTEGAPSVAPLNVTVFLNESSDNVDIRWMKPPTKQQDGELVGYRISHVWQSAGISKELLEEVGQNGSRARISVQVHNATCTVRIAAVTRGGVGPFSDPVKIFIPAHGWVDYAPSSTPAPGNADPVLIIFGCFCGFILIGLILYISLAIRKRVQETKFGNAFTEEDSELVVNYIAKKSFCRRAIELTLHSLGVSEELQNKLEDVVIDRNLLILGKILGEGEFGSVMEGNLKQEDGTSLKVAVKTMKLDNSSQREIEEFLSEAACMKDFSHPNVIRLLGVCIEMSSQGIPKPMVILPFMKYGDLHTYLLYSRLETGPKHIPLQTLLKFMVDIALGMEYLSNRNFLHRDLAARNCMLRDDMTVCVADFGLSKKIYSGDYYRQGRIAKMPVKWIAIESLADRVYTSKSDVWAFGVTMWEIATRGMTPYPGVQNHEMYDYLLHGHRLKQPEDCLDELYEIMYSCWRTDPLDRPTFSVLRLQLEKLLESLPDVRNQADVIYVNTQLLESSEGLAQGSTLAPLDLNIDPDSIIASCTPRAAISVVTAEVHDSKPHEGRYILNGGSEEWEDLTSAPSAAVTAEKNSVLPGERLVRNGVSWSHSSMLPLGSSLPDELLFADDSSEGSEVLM
T19 sequence (P20794 whole entry): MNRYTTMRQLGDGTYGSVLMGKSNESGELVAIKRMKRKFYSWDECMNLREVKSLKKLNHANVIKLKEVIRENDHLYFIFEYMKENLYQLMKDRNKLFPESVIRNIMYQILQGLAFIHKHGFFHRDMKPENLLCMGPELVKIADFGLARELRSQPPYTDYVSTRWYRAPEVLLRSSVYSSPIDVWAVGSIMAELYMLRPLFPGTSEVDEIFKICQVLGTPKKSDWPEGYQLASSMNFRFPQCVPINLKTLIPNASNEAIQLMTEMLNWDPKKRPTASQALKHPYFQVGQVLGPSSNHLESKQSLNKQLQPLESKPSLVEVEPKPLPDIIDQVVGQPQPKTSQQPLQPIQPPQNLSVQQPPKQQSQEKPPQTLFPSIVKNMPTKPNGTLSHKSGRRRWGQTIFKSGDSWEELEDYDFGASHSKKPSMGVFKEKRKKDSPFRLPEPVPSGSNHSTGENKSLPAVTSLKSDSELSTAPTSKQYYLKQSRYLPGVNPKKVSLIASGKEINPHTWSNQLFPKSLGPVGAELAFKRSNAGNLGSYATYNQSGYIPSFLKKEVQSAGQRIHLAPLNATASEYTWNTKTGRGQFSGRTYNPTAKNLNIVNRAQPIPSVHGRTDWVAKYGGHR
T1 sequence (Q9NRM7 whole entry): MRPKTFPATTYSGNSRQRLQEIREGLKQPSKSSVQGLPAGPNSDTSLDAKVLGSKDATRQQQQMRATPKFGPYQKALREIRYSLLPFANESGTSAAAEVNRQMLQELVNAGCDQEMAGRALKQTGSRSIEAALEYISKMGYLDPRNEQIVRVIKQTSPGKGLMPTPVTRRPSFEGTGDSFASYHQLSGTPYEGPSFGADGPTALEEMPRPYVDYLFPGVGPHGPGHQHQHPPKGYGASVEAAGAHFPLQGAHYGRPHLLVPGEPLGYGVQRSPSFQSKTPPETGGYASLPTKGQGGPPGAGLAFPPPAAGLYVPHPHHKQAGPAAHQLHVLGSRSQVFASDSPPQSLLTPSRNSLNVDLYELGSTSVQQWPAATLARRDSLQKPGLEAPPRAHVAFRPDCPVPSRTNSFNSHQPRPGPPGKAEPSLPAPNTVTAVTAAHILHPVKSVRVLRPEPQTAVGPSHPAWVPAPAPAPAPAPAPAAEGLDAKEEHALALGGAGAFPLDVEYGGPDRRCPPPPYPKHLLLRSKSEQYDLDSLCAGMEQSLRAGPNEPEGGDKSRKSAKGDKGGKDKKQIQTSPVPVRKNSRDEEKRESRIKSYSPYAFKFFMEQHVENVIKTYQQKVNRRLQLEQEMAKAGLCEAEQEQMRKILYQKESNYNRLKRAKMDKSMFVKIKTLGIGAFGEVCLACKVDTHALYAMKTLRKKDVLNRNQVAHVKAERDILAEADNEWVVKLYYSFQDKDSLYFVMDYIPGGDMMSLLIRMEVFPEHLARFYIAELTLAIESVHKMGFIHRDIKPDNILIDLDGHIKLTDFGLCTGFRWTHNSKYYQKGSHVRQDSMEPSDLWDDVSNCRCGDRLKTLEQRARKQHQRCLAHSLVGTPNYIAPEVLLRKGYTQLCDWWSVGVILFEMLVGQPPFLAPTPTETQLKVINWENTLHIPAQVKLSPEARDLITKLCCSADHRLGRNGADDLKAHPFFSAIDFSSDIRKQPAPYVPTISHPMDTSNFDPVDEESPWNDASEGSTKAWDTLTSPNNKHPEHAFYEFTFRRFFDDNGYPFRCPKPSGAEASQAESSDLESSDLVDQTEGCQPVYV
T22 sequence (Q86YV6 whole entry): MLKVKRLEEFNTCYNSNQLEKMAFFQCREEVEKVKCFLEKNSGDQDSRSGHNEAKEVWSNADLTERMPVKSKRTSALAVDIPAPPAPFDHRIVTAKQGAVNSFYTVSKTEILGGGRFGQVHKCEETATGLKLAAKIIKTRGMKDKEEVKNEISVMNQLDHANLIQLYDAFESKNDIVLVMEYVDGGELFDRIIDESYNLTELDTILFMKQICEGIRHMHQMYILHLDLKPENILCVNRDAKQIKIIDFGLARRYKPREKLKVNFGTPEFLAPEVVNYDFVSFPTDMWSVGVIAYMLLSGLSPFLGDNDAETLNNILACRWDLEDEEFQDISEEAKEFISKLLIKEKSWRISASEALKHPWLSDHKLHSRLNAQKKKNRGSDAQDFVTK
T7 sequence (Q9UBE8 whole entry): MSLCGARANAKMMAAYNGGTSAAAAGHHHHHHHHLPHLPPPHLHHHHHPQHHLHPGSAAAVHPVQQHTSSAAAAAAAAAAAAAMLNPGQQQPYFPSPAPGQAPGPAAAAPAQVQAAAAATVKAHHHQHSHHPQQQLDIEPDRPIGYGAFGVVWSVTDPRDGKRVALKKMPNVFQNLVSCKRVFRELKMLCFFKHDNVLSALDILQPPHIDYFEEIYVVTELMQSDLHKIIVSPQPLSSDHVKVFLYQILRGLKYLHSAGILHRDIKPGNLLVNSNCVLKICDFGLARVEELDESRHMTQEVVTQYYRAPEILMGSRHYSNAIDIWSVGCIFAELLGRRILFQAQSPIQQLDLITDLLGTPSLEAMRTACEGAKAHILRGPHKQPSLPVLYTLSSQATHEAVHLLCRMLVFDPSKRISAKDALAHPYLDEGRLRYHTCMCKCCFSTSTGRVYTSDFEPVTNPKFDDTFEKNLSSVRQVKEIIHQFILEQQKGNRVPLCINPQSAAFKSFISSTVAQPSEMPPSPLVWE
T21 sequence (P31751 whole entry): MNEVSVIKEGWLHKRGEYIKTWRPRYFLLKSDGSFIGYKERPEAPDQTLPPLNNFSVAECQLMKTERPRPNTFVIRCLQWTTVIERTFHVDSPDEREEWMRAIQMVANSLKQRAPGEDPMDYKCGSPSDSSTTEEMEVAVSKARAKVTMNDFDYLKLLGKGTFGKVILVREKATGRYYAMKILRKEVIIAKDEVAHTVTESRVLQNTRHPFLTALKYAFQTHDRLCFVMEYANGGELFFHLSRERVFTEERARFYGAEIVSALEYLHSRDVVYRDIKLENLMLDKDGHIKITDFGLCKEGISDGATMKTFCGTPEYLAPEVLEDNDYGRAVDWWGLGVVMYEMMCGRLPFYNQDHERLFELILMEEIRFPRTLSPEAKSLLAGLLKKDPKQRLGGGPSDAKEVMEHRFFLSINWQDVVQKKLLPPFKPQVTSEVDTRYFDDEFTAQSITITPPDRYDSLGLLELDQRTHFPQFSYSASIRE
T15 sequence (Q96PN8 whole entry): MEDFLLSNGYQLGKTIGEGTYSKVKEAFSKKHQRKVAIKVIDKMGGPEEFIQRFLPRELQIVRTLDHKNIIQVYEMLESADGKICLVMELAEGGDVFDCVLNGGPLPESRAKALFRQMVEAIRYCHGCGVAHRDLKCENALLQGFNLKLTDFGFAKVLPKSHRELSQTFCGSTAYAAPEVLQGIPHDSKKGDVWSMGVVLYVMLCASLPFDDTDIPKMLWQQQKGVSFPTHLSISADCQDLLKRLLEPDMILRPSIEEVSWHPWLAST

With `OCCN1CCN(Cc2ccc(-c3cnc4[nH]cc(-c5cccc(Cl)c5)c4c3)cc2)CC1` [Compound 12k, 2-(4-(4-(3-(3-Chlorophenyl)-1H-pyrrolo[2,3-b]pyridin-5-yl)benzyl)piperazin-1-yl)ethan-1-ol], the remaining activity at 0.1 µM in assay [1] was determined as 88.1%; in assay [2], 103%; in assay [3] it was 83.6%; in assay [4], 88.2%; in assay [5], 89%; in assay [6], 92.4%. Besides, the remaining activity at 0.1 µM stood at 94.3% in [7]; 102% in assay [8]; 94.4% in assay [9]; 97.1% in assay [10]; 106% in assay [11]; 99% in assay [12]. The remaining activity at 0.1 µM was found to be 75.1% in assay [13]; 98.5% in assay [14]; 129% in assay [15]; 75.1% in [16]; 88.8% in assay [17]; 116% in assay [18]. Moreover, the remaining activity at 0.1 µM in [19] is 87.5%; in assay [20] it was 97.7%; in [21] it was 103%; in assay [22] it was 37.2%; in assay [23] it was 93.6%; in assay [24], 98.6%.

Turning to `CN1CCN(Cc2ccc(-c3cnc4[nH]cc(-c5ccc6[nH]ccc6c5)c4c3)cc2)CC1` [Compound 1, 3-(1H-Indol-5-yl)-5-(4-((4-methylpiperazin-1-yl)methyl)phenyl)-1H-pyrrolo[2,3-b]pyridine, reference compound], the remaining activity at 0.1 µM stood at 83.2% in [1]; 105% in [2]; 80.8% in assay [3]; 74.3% in [4]; 100% in [5]; 92.2% in [6]. Moreover, the remaining activity at 0.1 µM in [7] is 101%; in assay [8], 103%; in [9] it was 89.5%; in assay [10], 96.8%; in [11], 106%; in assay [12], 113%. The remaining activity at 0.1 µM in [13] is 76.8%; in assay [14] it was 97.6%; in assay [15], 146%; in [16] it was 81.2%; in assay [17] it was 89.7%; in assay [18], 143%. Moreover, the remaining activity at 0.1 µM is 101% in [19]; 93.6% in [20]; 96.7% in [21]; 53.6% in assay [22]; 87.3% in [23]; 99.8% in [24].

The values above are taken from US12227500B2, “Substituted pyrrolo[2,3-b]pyridines for suppressing toxic endoplasmic reticulum stress” (THE TRUSTEES OF COLUMBIA UNIVERSITY IN THE CITY OF NEW YORK, priority 2018, dated 2025).
